# Measurements from the supplement of paper PMC10307832.
# Key:
# Experiment in all cases: relative viability (nuclei count vs DMSO), 5 days (fraction); higher = more cells survive
# [1] = compound: Cc1ccc2nc(NCCN)c3ncc(C)n3c2c1
# Procedure, shortened: (§1)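 MetaXpress counted nuclei in 4× images of lung cancer cell lines that had been fixed, permeabilised and Hoechst-stained in one step. Before that, cells in 1536-well plates were kept overnight at 37 °C, pinned with five √10-spaced library-drug doses on vehicle-anchored plates, and cultured 5 days without medium change. Viability takes treated-well nuclei over vehicle-well nuclei and uses the median across plates. Plates were accepted only at control CV below 25% and at least one doubling.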
# Salubrinal = compound: O=C(/C=C/c1ccccc1)NC(NC(=S)Nc1cccc2cccnc12)C(Cl)(Cl)Cl [Salubrinal]
# Procedure, shortened: as §1
# [2] = compound: Cc1ccc2nc(NCCN)c3ncc(C)n3c2c1 + CC(=O)Nc1cccc(-n2c(=O)n(C3CC3)c(=O)c3c(Nc4ccc(I)cc4F)n(C)c(=O)c(C)c32)c1 [Trametinib] (partner 0.02 µM)
# Procedure, shortened: (§2)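 The day after seeding in 1536-well plates, lung cancer cell lines were treated by pin tool with a single drug, or with a fixed anchor-drug dose together with five library-drug doses (not always all listed) in √10 steps. After 5 days, a combined fix-and-stain solution (final 0.05% Triton X-100, 1% formaldehyde, 1 ug/ml Hoechst) was added. Nuclei counted on 4× images gave relative viability as treated counts over vehicle counts, reported as the median of duplicate plates.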
# Salubrinal + Navitoclax = compound: O=C(/C=C/c1ccccc1)NC(NC(=S)Nc1cccc2cccnc12)C(Cl)(Cl)Cl [Salubrinal] + CC1(C)CCC(c2ccc(Cl)cc2)=C(CN2CCN(c3ccc(C(=O)NS(=O)(=O)c4ccc(N[C@H](CCN5CCOCC5)CSc5ccccc5)c(S(=O)(=O)C(F)(F)F)c4)cc3)CC2)C1 [Navitoclax] (partner 0.5 µM)
# Procedure, shortened: as §2
Cell Line,relative viability ([1]; 0.04 µM),relative viability ([1]; 0.1265 µM),relative viability ([1]; 0.4 µM),relative viability ([1]; 1.265 µM),relative viability ([1]; 4 µM),relative viability (Salubrinal; 0.08 µM),relative viability (Salubrinal; 0.253 µM),relative viability (Salubrinal; 0.8 µM),relative viability (Salubrinal; 2.53 µM),relative viability (Salubrinal; 8 µM),relative viability ([2]; first compound 0.04 µM),relative viability ([2]; first compound 0.1265 µM),relative viability ([2]; first compound 0.4 µM),relative viability ([2]; first compound 1.265 µM),relative viability ([2]; first compound 4 µM),relative viability (Salubrinal + Navitoclax; first compound 0.08 µM),relative viability (Salubrinal + Navitoclax; first compound 0.253 µM),relative viability (Salubrinal + Navitoclax; first compound 0.8 µM),relative viability (Salubrinal + Navitoclax; first compound 2.53 µM),relative viability (Salubrinal + Navitoclax; first compound 8 µM)
NCI-H2170,0.961,0.976,0.995,0.887,0.978,1.21,0.984,1.04,0.996,0.935,0.892,0.915,0.871,0.83,0.921,0.662,0.581,0.631,0.598,0.503
NCI-H2228,1.15,0.992,1.03,0.915,0.838,1.23,0.757,1.21,1.04,0.968,0.549,0.501,0.522,0.519,0.424,1.43,0.661,0.888,1.07,0.767
NCI-H2347,1.06,1.12,0.911,0.986,0.962,0.94,1.03,1.15,1.08,1.07,0.269,0.289,0.264,0.29,0.3,0.928,0.86,0.75,0.728,0.864
NCI-H2405,1.02,1.01,1.03,1.05,0.915,1.01,1.03,1.09,1.03,0.966,0.648,0.629,0.674,0.589,0.581,0.942,0.957,0.793,0.82,0.905
NCI-H3122,0.998,0.988,0.999,1.06,1.01,1.08,1,1.09,1.05,1.01,0.21,0.26,0.248,0.259,0.238,1.09,1.01,1.06,1.06,1.09
PC-3 [JPC-3],1.01,1.05,1,1.09,0.998,1.05,0.915,1.16,1.04,0.969,0.656,0.738,0.62,0.601,0.529,0.859,0.768,0.846,0.766,0.766
PC-14,1.04,0.963,0.927,0.917,0.671,1.11,0.96,1.13,1,0.862,0.779,0.706,0.742,0.647,0.327,1.05,1.01,1,1.07,0.864
RERF-LC-KJ,1.03,0.996,0.93,0.938,0.823,1.05,1.02,1.04,0.98,0.888,0.857,0.805,0.888,0.86,0.828,0.858,1.24,0.816,0.945,0.83
SK-LU-1,1.06,1,1.03,1.05,0.976,1.11,0.905,1.19,1.11,0.878,0.427,0.509,0.478,0.546,0.462,0.917,0.745,1.02,0.859,0.864
SK-MES-1,1.05,1.01,0.984,1.01,0.992,1.14,0.997,1.09,0.988,0.945,0.545,0.556,0.539,0.594,0.573,1.39,1.12,1.33,1.24,1.12
SW 1573,0.989,1.02,1,1.05,0.776,1.07,1.05,1.03,0.998,0.994,0.584,0.6,0.602,0.612,0.306,1.02,1,0.937,0.929,1.01
UMC-11,1.01,0.918,0.939,0.965,0.946,0.901,0.869,1.09,1.01,1.03,0.707,0.7,0.72,0.703,0.632,0.281,0.301,0.329,0.318,0.305
